Data: US9243221B2, “Compositions and methods of functionally enhanced in vitro cell culture system” (HUREL CORPORATION, priority 2008, dated 2016)
Where two headings read alike, the source gives them in different places.

Assays:
[1] = test system: Cryopreserved human hepatocytes; test: Long term accumulation of 4-OH midazolam in culture media of oxygenated hepatocyte co-cultures; format: in vitro ADME; settings: in the presence and absence of rifampicin; FIG. 5B
[2] = test system: Cryopreserved human hepatocytes
Procedure: Cryopreserved human hepatocytes are cultured with 3T3-J2 fibroblasts under serum free conditions. Following overnight incubation in high oxygen tension (95% O2, 5% CO2) the cells are exposed to one of the following drugs: antipyrine, buspirone, metoprolol, sildenafil, and timolol.

Row | SMILES | clearance of drugs ([2]; human) | also measured
1 | Cc1ncc2n1-c1ccc(Cl)cc1C(c1ccccc1F)=NC2O (stereo not shown) [4-OH midazolam] |  | accumulation of 4-OH midazolam in the culture media [1]: can be detected over 30 hours of culture
2 | Cc1cc(=O)n(-c2ccccc2)n1C [antipyrine] |  | clearance of drugs ([2]; cryopreserved human hepatocytes with 3T3-J2 fibroblasts, serum free, overnight 95% O2, 5% CO2, FIG. 5A): slow clearing
3 | CCCc1nn(C)c2c(=O)[nH]c(-c3cc(S(=O)(=O)N4CCN(C)CC4)ccc3OCC)nc12 [sildenofil, sildenafil] | slow clearing | 
4 | CC(C)(C)NC[C@H](O)COc1nsnc1N1CCOCC1 [timolol] | slow clearing | 
